Where “and” joins values, the source holds several entries; their conditions need not be identical. Identical values can stand only once. Like-named read-outs stand apart in the source and are kept apart here.
Key:
[1] = molecular target: T1, Porcine pancreatic α-amylase (Sus scrofa, UniProt P00690); experiment: In vitro α-amylase inhibition assay (starch/DNS, absorbance at 540 nm); type: biochemical; details: for IC50: 0.2 M potassium phosphate buffer pH 6.8, 37 °C, mean ± SD, triplicate, read-out: IC50 Values against α-Amylase (converted); for inhibited α-amylase more than the analogue without the 2-hydroxyl group: compared with 4-hydroxybenzoic acid (Group 1) or 3,4-dihydroxybenzoic acid (Group 2), Figure 1
T1 construct: purchased Sigma-Aldrich Chemical Co. (St. Louis, MO, USA) A3176
T1 sequence (P00690 16-511): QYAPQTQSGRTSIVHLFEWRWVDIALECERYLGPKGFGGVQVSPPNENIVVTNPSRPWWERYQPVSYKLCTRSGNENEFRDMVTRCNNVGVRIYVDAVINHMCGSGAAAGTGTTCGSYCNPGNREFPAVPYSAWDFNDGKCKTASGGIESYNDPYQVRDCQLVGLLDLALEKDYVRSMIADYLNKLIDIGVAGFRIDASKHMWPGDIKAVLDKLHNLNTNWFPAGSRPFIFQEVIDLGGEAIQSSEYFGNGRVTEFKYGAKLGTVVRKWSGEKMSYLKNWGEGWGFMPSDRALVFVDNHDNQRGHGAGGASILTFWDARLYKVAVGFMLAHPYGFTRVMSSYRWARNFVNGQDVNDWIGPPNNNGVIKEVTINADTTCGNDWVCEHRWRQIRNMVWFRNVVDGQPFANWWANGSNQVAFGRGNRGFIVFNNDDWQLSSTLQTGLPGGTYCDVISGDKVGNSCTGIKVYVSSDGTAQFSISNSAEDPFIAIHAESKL
Experimental: The α-amylase inhibition assay was adapted from Phan et al. with slight modifications. In order to simulate the small intestine conditions, a buffer pH of 6.8 and an incubation temperature of 37 °C were used. Porcine pancreatic α-amylase was dissolved in 0.2 M potassium phosphate buffer (pH 6.8). Phenolic acid solutions were prepared in 80% DMSO. […] An aliquot of 50 μL of phenolic acid solution (10, 20, 30, 40 and 50 mM) was mixed with 400 μL of 0.2 M potassium phosphate buffer (pH 6.8 with 7 mM NaCl) in a 2 mL tube. After adding 100 μL of the enzyme solution (0.5 unit/mL), the tube was incubated at 37 °C for 5 min. Subsequently, 450 μL of the cooked soluble starch solution (5 mg/mL) was added to initiate the reaction at 37 °C for 20 min, followed by the addition of 500 μL of DNS reagent, and then the tubes were boiled for 15 min at 100 °C to inactivate the enzyme. A total of 200 μL of the reaction solution was transferred to a 96-well plate and the absorbance was measured at 540 nm using a microplate reader (Tecan Infinite 200 PRO; Tecan, Männedorf, Zürich, Switzerland). All of the samples were prepared and measured in triplicate. The inhibition rate was calculated using the following formula: (1) Inhibition(%)={1−A[sample]−A[blank]/A[control+]−A[control−]}×100 where:
A [control+] is absorbance at 100% enzyme activity (buffer with starch and enzyme);
A [control−] is starch background absorbance (buffer and starch without enzyme);
A [sample] is test sample absorbance (buffer with enzyme, starch and inhibitor);
A [blank] is inhibitor and starch background absorbance (a test sample without enzyme).
The inhibition rates were plotted against the logarithmic values of six concentrations of the test inhibitor and a non-linear regression analysis was employed to generate a dose-response curve and calculate the IC50 values (mM and mg/mL).

α-amylase = details: cited from earlier work
[2] = recent studies, read-out: IC50 for α-amylase
[3] = lower buffer concentration (0.02 M) than in this study, read-out: IC50 previously reported

Compound | IC50 [1] | inhibited α-amylase more than the analogue without the 2-hydroxyl group [1] [%] | IC50 (α-amylase; [2]) [mM] | IC50 (α-amylase; [3]) [mM]
Cc1cc(C(=O)O)ccc1O [Compound 10, 4-Hydroxy-3-methylbenzoic acid] | 28.6 mM | – | – | –
O=C(O)c1ccc(O)c(O)c1O [Compound 5, 2,3,4-Trihydroxybenzoic acid] | 17.3 mM | 46.56 | 33.3 | –
O=C(O)c1ccc(O)c(O)c1 [Compound 4, 3,4-Dihydroxybenzoic acid] | 25.4 mM | – | – | 11.5 ± 0.45
COc1cc(C(=O)O)cc(OC)c1O [Compound 17, 4-Hydroxy-3,5-dimethoxybenzoic acid] | 32.2 mM | – | 44.8 | –
Cc1ccc(C(=O)O)cc1 [Compound 8, 4-Methylbenzoic acid] | 52.3 mM | – | – | –
Cc1cc(C(=O)O)cc(C)c1O [Compound 11, 4-Hydroxy-3,5-dimethylbenzoic acid] | 26 mM | – | – | –
O=C(O)c1ccc(O)cc1O [Compound 3, 2,4-Dihydroxybenzoic acid] | 19.3 mM | 33.31 | – | –
Cc1cc(O)cc(O)c1C(=O)O [Compound 12, 2,4-Dihydroxy-6-methylbenzoic acid] | 18.1 mM | – | – | –
O=C(O)c1cc(O)ccc1O [2,5-dihydroxybenzoic acid, reference compound] | – | – | 0.298 | –
Cc1cc(O)ccc1C(=O)O [Compound 9, 4-Hydroxy-2-methylbenzoic acid] | 23.4 mM | – | – | –
O=C(O)c1ccccc1 [Compound 1, Benzoic acid] | 45.2 mM | – | – | –
COc1cc(O)ccc1C(=O)O [Compound 14, 4-Hydroxy-2-methoxybenzoic acid] | 48.9 mM | – | – | –
O=C(O)c1cc(O)c(O)c(O)c1 [Compound 7, 3,4,5-Trihydroxybenzoic acid] | 26.1 mM | – | 1.25 | 7.46 ± 0.24
O=C(O)c1c(O)cc(O)cc1O [Compound 6, 2,4,6-Trihydroxybenzoic acid] | 20.6 mM | – | – | –
COc1cc(C(=O)O)cc(O)c1O [Compound 16, 3,4-Dihydroxy-5-methoxybenzoic acid] | 37.8 mM | – | – | –
O=C(O)c1ccc(O)cc1 [Compound 2, 4-Hydroxybenzoic acid] | 25.7 mM | – | – | –
COc1cc(C(=O)O)ccc1O [Compound 15, 4-Hydroxy-3-methoxybenzoic acid] | 24.4 mM | – | 27.9 | –
COc1ccc(C(=O)O)cc1 [Compound 13, 4-Methoxybenzoic acid] | 44.2 mM and 44.1 mM | – | – | –
